Data: US7384636B2, “Polypeptide” (Kabushiki Kaisha Hayashibara Seibutsu Kagaku Kenkyujo, priority 2003, dated 2008)

What was measured:
Format in all cases: in vivo
OMP [1] = test: Titer against OMP, B10 mice immunized intranasally (Experiment 7); settings: intranasal, with or without CT
Experimental: (§1) All the mice were bled after one week.
(§2) As a negative control, DUP was prepared.

the immunized peptide [2] = test: Titer against the immunized peptide, B10 mice immunized intranasally (Experiment 7); settings: intranasal, with or without CT
Experimental: as §1, §2

the immunized peptide [3] = test: Titer against the immunized peptide, BALB/c mice immunized intranasally (Experiment 8); settings: intranasal
Experimental: as §1, §2

OMP [4] = test: Titer against OMP, BALB/c mice immunized intranasally (Experiment 8); settings: intranasal
Experimental: as §1, §2

OMP [5] = test: Titer against OMP, BALB/c mice immunized intraperitoneally (Experiment 5); settings: intraperitoneal
Text: as §1

[6] = tested on: the immunized polypeptide; test: Titer against the immunized peptide, BALB/c mice immunized intraperitoneally (Experiment 5); settings: intraperitoneal
Text: as §1

| Substance | Titer against OMP (OMP [1]) | Titer against the immunized peptide (the immunized peptide [2]) | Titer against the immunized peptide (the immunized peptide [3]) | further results |
| --- | --- | --- | --- | --- |
| OMP-KK-RGD-UP: SEQ ID NO:34, RGD at N-terminal side of UP (LAVYWELLAKYLLDRVQKVAKKRGDTYEAALKQYEADL; OMP-KK-RGD-UP) | 16 | 723 |  |  |
| OMP-KK-OVAp: SEQ ID NO:40, control, OMP linked by KK to OVA peptide fragment (LAVYWELLAKYLLDRVQKVAKKISQAVHAAHAEINE; OMP-KK-OVAp) |  |  | 1,589 | Titer against OMP (OMP [4]): 108 |
| UP-KK-OMP: SEQ ID NO:21, KK inserted between UP and OMP (TYEAALKQYEADLKKLAVYWELLAKYLLDRVQKVA; UP-KK-OMP) |  |  |  | Titer against OMP (OMP [5]): 1,211; Titer against the immunized peptide [6]: 29,921 |
| T1-RGD-KK-UP: SEQ ID NO:39, T1 T cell epitope, RGD, KK linker, UP (KQIINMWQAVGKAMYARGDKKTYEAALKQYEADL; T1-RGD-KK-UP) |  |  | 1,707 |  |
| OMP-RGD-KK-UP: SEQ ID NO:33, RGD at C-terminal side of OMP (LAVYWELLAKYLLDRVQKVARGDKKTYEAALKQYEADL; OMP-RGD-KK-UP) | 16 | 24,370 |  |  |
| OMP-KK-UP: SEQ ID NO:20, KK inserted between OMP and UP (LAVYWELLAKYLLDRVQKVAKKTYEAALKQYEADL; OMP-KK-UP) | 32 | 128 |  | Titer against OMP (OMP [5]): 1,731; Titer against the immunized peptide [6]: 782,685 |
| OMP-KK-UP-RGD: SEQ ID NO:35, RGD at C-terminal side of UP (LAVYWELLAKYLLDRVQKVAKKTYEAALKQYEADLRGD; RGD-KK-UP-RGD) | 16 | 9,483 |  |  |
| RGD-OMP-KK-UP: SEQ ID NO:32, RGD at N-terminal side of OMP in OMP-KK-UP (RGDLAVYWELLAKYLLDRVQKVAKKTYEAALKQYEADL; RGD-OMP-KK-UP) | 32 | 11,514 |  |  |
| T1-KK-UP: SEQ ID NO:41, control, T1 peptide of HIV IIIB gp120 linked by KK to UP (KQIINMWQAVGKAMYAKKTYEAALKQYEADL; T1-KK-UP) |  |  | 160 |  |
